The values that follow come from US20140018316A1, “OPHTHALMIC PHARMACEUTICAL COMPOSITION” (Hayashibara Co., Ltd., priority 2005, published 2014).

This assay has as its system circular corneal fragment extracted from a pig eye ball. Kind of assay: Corneal walleye/cloudiness and edema of pig corneal fragments soaked in test or control solutions. Set-up: degree of corneal walleye/cloudiness (relative value): scale not given here; key to corneal edema: ◯: Corneal edema was observed.; —: No corneal edema was observed. As to conditions: for corneal edema / degree of corneal walleye/cloudiness (relative value): 100 mM in physiological saline. The procedure:
Experiment to examine the influence of cyclic tetrasaccharide on corneal walleye/cloudiness was conducted as follows: A physiological saline containing 100 mM cyclic tetrasaccharide was previously prepared for use as a test solution by dissolving a cyclic tetrasaccharide crystal, pentahydrate, which had been prepared by the later described method in Example for Reference 2. As a positive control solution, it was prepared a physiological saline containing 100 mM α,α-trehalose, a reagent grade specimen, commercialized by Hayashibara Biochemical Laboratories, Inc., Okayama, Japan; and as a negative control solution, physiological saline was used. Two milliliters of any one of the above three kinds of aqueous solutions were added to respective two wells in a commercialized 24-well culture plate. To each well in each culture plate a circular corneal fragment, which had been extracted from a pig eye ball obtained from a slaughterhouse by using a trephine for corneal transplantation, was placed and macroscopically and microscopically observed for changing in both the degree of corneal walleye/cloudiness and the change of corneal shape such as corneal edema. The macroscopic and microscopic observations were done just after the corneas were placed in the wells at (0) and at 1, 2, 6, 24, 48 and 72 hours after their placing. The methods of macroscopic and microscopic observations and the analysis of the time course change of corneal walleye/cloudiness were conducted by the same ones as used in Experiment 1. Tables 3 and 4 show the transition of corneal walleye/cloudiness and that of the corneal edema, respectively.

In the case of `OCC1OC2OCC3O[C@H](O[C@H]4C(O)C(CO)OC(OCC5O[C@H](O[C@@H](C1O)C2O)C(O)C(O)[C@@H]5O)C4O)C(O)C(O)[C@@H]3O` (stereo partly drawn) [Test solution, cyclo{→6)-α-D-glucopyranosyl-(1→3)-α-D-glucopyranosyl-(1→6)-α-D-glucopyranosyl-(1→3)-α-D-glucopyranosyl-(1→}], the corneal edema entry is, setting by setting: (1 hour) “—”; (2 hours) “—”; (6 hours) “—”; (24 hours) “—”; (48 hours) “—”; (72 hours) “—”. Also, the corneal edema result (time 0) is given as “—”. Besides, the “degree of corneal walleye/cloudiness (relative value)” value amounted to 11 (1 hour); 11 (2 hours); 13 (6 hours); 16 (24 hours); 16 (48 hours); 19 (72 hours). Moreover, the “degree of corneal walleye/cloudiness (relative value)” value (time 0) was 10. Under “100 mM, up to 72 hours”, the “corneal edema (in words)” value was “No occurrence of corneal edema was observed”.
